Test results published in patent US8637683B2, “Macrocyclic lactone derivatives for the treatment of cancer” (Piramal Enterprises Limited, priority 2009, dated 2014).
≈ marks a conversion by molar mass, not a printed value. Where “and” joins values, the source holds several entries; their conditions need not be identical. Equal values may be shown once. Read-outs that look alike come from different tables or passages of the source.

Experiments:
RXF 486L = assay: Monolayer assay (modified propidium iodide), RXF 486L; assay type: cell-based, human; details: Renal, 4 days of treatment
From the text: (§1) Oncotest GmbH, Germany's proprietary tumor cell line panel comprises 40 cell lines. These cell lines were derived from 15 different tumor histotypes, each represented by 1 to 6 different cell lines. Cell lines were established from cancer of the bladder (3), colon (4), head and neck (1), lung (6), breast (3), pancreas (3), prostate (4), ovary (2), kidney (3), liver (1), stomach (1) and the uteri body (1), as well as from melanoma (3), sarcoma (2) and pleuramesothelioma (3). Out of these 40 cell lines, 24 cell lines were established at Oncotest, from patient-derived tumor xenografts. […]
(§2) Stock solutions of the test compounds (330 μg/mL in DMSO) were prepared and stored in small aliquots (200 μL) at −20° C. […] Each concentration was evaluated in triplicate. […]
(§3) Cells were plated in 96-well flat-bottom microtiter plates at a cell density of 4,000 to 10,000 cells/well. […] To measure the viable cell number, the remaining adherent cells were killed and permeabilized by repeated freezing and thawing and PI fluorescence was measured using the Cytofluor 4000 microplate reader (excitation λ=530 nm, emission λ=620 nm), which was a measure for the number of cells which survived treatment. […] IC-values were calculated based on the principle of linear two-point curve fit. […]

MEXF 276L = assay: Monolayer assay (modified propidium iodide), MEXF 276L; assay type: cell-based, human; details: Melanoma, 4 days of treatment
From the text: as §1, §2, §3

OVCAR3 = assay: Monolayer assay (modified propidium iodide), OVCAR3; assay type: cell-based, human; details: OVCAR3, Ovarian, 4 days of treatment
From the text: as §1, §2, §3

RXF 1781L = assay: Monolayer assay (modified propidium iodide), RXF 1781L; assay type: cell-based, human; details: Renal, 4 days of treatment
From the text: as §1, §2, §3

[1] = test system: panel of 40 human tumor cell lines; assay: Monolayer assay, panel of 40 human tumor cell lines; assay type: cell-based
From the text: (§4) Oncotest GmbH, Germany's proprietary tumor cell line panel comprises 40 cell lines. These cell lines were derived from 15 different tumor histotypes, each represented by 1 to 6 different cell lines. Cell lines were established from cancer of the bladder (3), colon (4), head and neck (1), lung (6), breast (3), pancreas (3), prostate (4), ovary (2), kidney (3), liver (1), stomach (1) and the uteri body (1), as well as from melanoma (3), sarcoma (2) and pleuramesothelioma (3). Out of these 40 cell lines, 24 cell lines were established at Oncotest, from patient-derived tumor xenografts. The other 16 cell lines were either provided by the NCI (Bethesda; MD, USA) or were purchased from ATCC (Rockville, Md., USA) or DSMZ (Braunschweig, Germany).
Cell lines were routinely passaged once or twice weekly and maintained in culture for upto 20 passages. All cells were grown at 37° C. in a humidified atmosphere with 5% CO2 in RPMI 1640 medium supplemented with 10% (v/v) fetal calf serum (FCS) and 0.1 mg/mL gentamicin (medium and all other components from PAA, Cölbe, Germany). Authenticity of all cell lines was proven at the DSMZ by STR (short tandem repeat) analysis, a PCR based DNA-fingerprinting methodology.
Stock solutions of the test compounds (330 μg/mL in DMSO) were prepared and stored in small aliquots (200 μL) at −20° C. An aliquot of the stock solution was thawed on the day of use and stored at room temperature prior to and during dosing. The subsequent dilutions were done with complete RPMI 1640 cell culture medium as follows: the stock solution was diluted 1:22 followed by serial dilutions finally resulting in a (compared to the test concentration) 15-fold higher concentration. For the final dilution step (1:15), 10 μL/well of the respective compound solution was directly added to 140 μL/well culture medium. Test compounds were tested at […]. Each concentration was evaluated in triplicate.
A modified propidium iodide assay was used to assess the effect of the test compounds on the growth of the human tumor cell lines and was designed as in reference, Anti-cancer Drugs, 6, 522-532, (1995), the disclosure of which is incorporated by reference for the teaching of the assay.
Cells were plated in 96-well flat-bottom microtiter plates at a cell density of 4,000 to 10,000 cells/well. After a 24 h recovery period to allow the cells to resume exponential growth, the test compounds were applied at five concentrations in log increments in triplicates in two independent runs. After 4 days of treatment, the medium with/without test compounds including all floating (i.e., dead) cells was aspirated and replaced by 200 μL of an aqueous propidium iodide (PI) solution (7 μg/mL). To measure the viable cell number, the remaining adherent cells were killed and permeabilized by repeated freezing and thawing and PI fluorescence was measured using the Cytofluor 4000 microplate reader (excitation λ=530 nm, emission λ=620 nm), which was a measure for the number of cells which survived treatment. Pharmacological effects on cell proliferation and survival were expressed as Test/Control×100 (% T/C) values, with T and C representing the fluorescence read-outs for wells with and without test compound, respectively, i.e. T/C represents the ratio of viable cell numbers following incubation of cell line with/without test compound. Based on the T/C values IC50 and IC70 values, being the drug concentration necessary to inhibit cell growth by 50% (T/C=50%) and 70% (T/C=30%), respectively, were determined by plotting compound concentration versus cell viability (T/C). IC-values were calculated based on the principle of linear two-point curve fit. […]

H 460 = assay: Monolayer assay (modified propidium iodide), H 460; assay type: cell-based, human; details: H 460, Lung, 4 days of treatment
From the text: as §1, §2, §3

LXF 629L = assay: Monolayer assay (modified propidium iodide), LXF 629L; assay type: cell-based, human; details: Lung, 4 days of treatment
From the text: as §1, §2, §3

BXF 1218L = assay: Monolayer assay (modified propidium iodide), BXF 1218L; assay type: cell-based, human; details: Bladder, 4 days of treatment
From the text: as §1, §2, §3

MCF 7 = assay: Monolayer assay (modified propidium iodide), MCF 7; assay type: cell-based, human; details: MCF 7, Mammary, 4 days of treatment
From the text: as §1, §2, §3

HT 29 = assay: Monolayer assay (modified propidium iodide), HT 29; assay type: cell-based, human; details: HT 29, Colon, 4 days of treatment
From the text: as §1, §2, §3

RXF 393NL = assay: Monolayer assay (modified propidium iodide), RXF 393NL; assay type: cell-based, human; details: Renal, 4 days of treatment
From the text: as §1, §2, §3

LIXF 575L = assay: Monolayer assay (modified propidium iodide), LIXF 575L; assay type: cell-based, human; details: Liver, 4 days of treatment
From the text: as §1, §2, §3

LNCAP = assay: Monolayer assay (modified propidium iodide), LNCAP; assay type: cell-based, human; details: Prostate, 4 days of treatment
From the text: as §1, §2, §3

PC3M = assay: Monolayer assay (modified propidium iodide), PC3M; assay type: cell-based, human; details: Prostate, 4 days of treatment
From the text: as §1, §2, §3

CXF 269L = assay: Monolayer assay (modified propidium iodide), CXF 269L; assay type: cell-based, human; details: Colon, 4 days of treatment
From the text: as §4
Cell lines were routinely passaged once or twice weekly and maintained in culture for upto 20 passages. All cells were grown at 37° C. in a humidified atmosphere with 5% CO2 in RPMI 1640 medium supplemented with 10% (v/v) fetal calf serum (FCS) and 0.1 mg/mL gentamicin (medium and all other components from PAA, Cölbe, Germany). […]
as §2
as §3, with “treatment. Pharmacological effects on cell proliferation and survival were expressed as Test/Control×100 (% T/C) values, with T and C representing the fluorescence read-outs for wells with and without test compound, respectively, i.e. T/C represents the ratio of viable cell numbers following incubation of cell line with/without test compound.” for “treatment.”

PAXF 546L = assay: Monolayer assay (modified propidium iodide), PAXF 546L; assay type: cell-based, human; details: Pancreas, 4 days of treatment
From the text: as §1, §2, §3

For `C/C=C/C(O)C(C)/C=C/C(=N\O)C(C)C(O)C(C)C1OC(=O)/C(OC)=C/C(C)=C/C(C)C(O)C(CC)C(O)C(C)C/C(C)=C/C=C/C1OC` (stereo not shown) [Example 7, (3Z,5E,13E,15E)-18-((5Z,6E,10E)-3,9-Dihydroxy-5-(hydroxymino)-4,8-dimethyldodeca-6,10-dien-2-yl)-9-ethyl-8,10-dihydroxy-3,17-dimethoxy-5,7,11,13-tetramethyl oxacyclooctadeca-3,5,13,15-tetraen-2-one], which IC50 (RXF 486L; Homo sapiens, 96 h) is on record?
The IC50 was 16 ng/mL (≈ 23.2 nM).

And the IC70 (RXF 486L)?
The IC70 was 39.0 ng/mL (≈ 56.5 nM).

What about the IC50 (MEXF 276L; Homo sapiens, MEXF276L, 96 h) of the same compound?
The IC50 was 1 ng/mL (≈ 1.45 nM).

And the IC70 (MEXF 276L)?
Its IC70 is 251.0 ng/mL (≈ 364 nM).

What about the IC50 (OVCAR3; Homo sapiens, OVCAR-3, 96 h) of the same compound?
The IC50 was 0.4 ng/mL (≈ 0.58 nM).

And the IC70 (OVCAR3)?
The IC70 was over 1000 ng/mL.

What about the IC50 (RXF 1781L; Homo sapiens, 96 h) of the same compound?
The IC50 was 7 ng/mL (≈ 10.1 nM).

And the IC70 (RXF 1781L)?
The IC70 was 28.0 ng/mL (≈ 40.6 nM).

And the “activity in all cell lines as tested” value ([1]; 40 cell lines)?
Its value is “concentration-dependent activity”.

And the “tumor selectivity” value ([1]; 40 cell lines)?
Its value is “remarkable level of tumor selectivity”.

What about the “Tumor selectivity: number of cell lines among the histotype with individual IC70 <mean IC70” value (“Tumor selectivity: number” below) ([1]; Bladder) of the same compound?
The value was 2 out of 3 and 2/3.

What about the “Tumor selectivity: number” value ([1]; Breast (mammary)) of the same compound?
The value was 2/3 and 3/3.

What about the “Tumor selectivity: number” value ([1]; Colon) of the same compound?
The value was 4/4.

And the IC50 ([1]; Homo sapiens, all 40 cell lines, read-out: IC50)?
Its IC50 is under 1000 ng/mL.

What about the “Tumor selectivity: number” value ([1]; Lung) of the same compound?
Its value is 5/6.

And the “Tumor selectivity: number” value ([1]; Melanoma)?
Its value is 2/3.

What about the “Tumor selectivity: number” value ([1]; Pleurameso) of the same compound?
Its value is 1/3.

What about the “Tumor selectivity: number” value ([1]; Prostate) of the same compound?
Its value is 2/4.

What about the IC70 ([1]; all 4 colon cancer cell lines) of the same compound?
Its IC70 is at most 5 ng/mL.

What about the “Mean IC70” value ([1]; mean over panel of 40 human tumor cell lines) of the same compound?
Its value is 9.1 ng/mL.

What about the IC50 ([1]; mean over panel of 40 human tumor cell lines, read-out: Mean IC50) of the same compound?
Its IC50 is 1.1 ng/mL (≈ 1.59 nM).

And the IC70 (H 460)?
The IC70 was 2.0 ng/mL (≈ 2.9 nM).

What about the IC50 (H 460; Homo sapiens, NCI-H460, 96 h) of the same compound?
Its IC50 is 0.7 ng/mL (≈ 1.01 nM).

What about the IC50 (LXF 629L; Homo sapiens, 96 h) of the same compound?
The IC50 was 0.1 ng/mL (≈ 0.145 nM).

And the IC70 (LXF 629L)?
The IC70 was 1.0 ng/mL (≈ 1.45 nM).

What about the IC70 (BXF 1218L) of the same compound?
Its IC70 is 46.0 ng/mL (≈ 66.7 nM).

And the IC50 (BXF 1218L; Homo sapiens, 96 h)?
Its IC50 is 4 ng/mL (≈ 5.8 nM).

And the IC50 (MCF 7; Homo sapiens, MCF7, 96 h)?
The IC50 was 1 ng/mL (≈ 1.45 nM).

And the IC70 (MCF 7)?
Its IC70 is 4.0 ng/mL (≈ 5.8 nM).

What about the IC70 (HT 29) of the same compound?
The IC70 was 0.9 ng/mL (≈ 1.3 nM).

What about the IC50 (HT 29; Homo sapiens, 96 h) of the same compound?
The IC50 was 0.4 ng/mL (≈ 0.58 nM).

And the IC50 (RXF 393NL; Homo sapiens, 96 h)?
Its IC50 is 7 ng/mL (≈ 10.1 nM).

What about the IC70 (RXF 393NL) of the same compound?
Its IC70 is 1000 ng/mL (≈ 1450 nM).

And the IC50 (LIXF 575L; Homo sapiens, 96 h)?
Its IC50 is under 0.1 ng/mL.

What about the IC70 (LIXF 575L) of the same compound?
Its IC70 is 2.0 ng/mL (≈ 2.9 nM).

What about the IC50 (LNCAP; Homo sapiens, 96 h) of the same compound?
The IC50 was 3 ng/mL (≈ 4.35 nM).

What about the IC70 (LNCAP) of the same compound?
Its IC70 is 15.0 ng/mL (≈ 21.7 nM).

What about the IC50 (PC3M; Homo sapiens, PC-3M, 96 h) of the same compound?
The IC50 was 0.4 ng/mL (≈ 0.58 nM).

And the IC70 (PC3M)?
Its IC70 is 3.0 ng/mL (≈ 4.35 nM).

And the IC70 (CXF 269L)?
Its IC70 is 0.2 ng/mL (≈ 0.29 nM).

And the IC50 (CXF 269L; Homo sapiens, 96 h)?
Its IC50 is under 0.1 ng/mL.

What about the IC50 (PAXF 546L; Homo sapiens, 96 h) of the same compound?
The IC50 was 0.5 ng/mL (≈ 0.725 nM).

And the IC70 (PAXF 546L)?
The IC70 was over 1000 ng/mL.
